The results in this text go back to US5594027A, “Aminocycloalkanobenzodioxoles as beta-3 selective adrenergic agents” (American Cyanamid Company, priority 1995, dated 1997).

In experiment [1] the target is T1, β3-adrenergic receptor (Rattus norvegicus, UniProt P26255).
T1 construct: Rat epididymal fat pads are excised and placed in 0.9% saline; from tissue; host or cells: adipocytes isolated by collagenase from rat epididymal fat pads
The experiment is described as follows: Stimulation of adipocyte lipolysis (β3-effect), glycerol generated. In kind it is cell-based. The settings on record: rat epididymal adipocytes, 30 min at 37° C.; concentration giving 50% of the compound's own maximum rate of lipolysis; read-out: Lipolysis (beta3)(EC50 nM). The source says: (§1) β-Adrenergic receptors can be divided into β1, β2 and β 3-subtypes. Activation of β1 -receptors invokes increases in heart rate while activation of β2 -receptors stimulates glycogen breakdown in muscle and thereby prevents glycogen synthesis. Activation of β3 -receptors stimulates lipolysis (the breakdown of adipose tissue triglycerides to glycerol and free fatty acids), and thereby promotes the loss of fat mass. Ccmpounds that stimulate β3 -receptors will have antiobesity activity. In addition, they have hypoglycemic or anti-diabetic activity, but the mechanism of this effect is unknown. A compound that selectively stimulates β3 -receptors, i.e. has little or no β1 or β2 -activity, will have the desired anti-diabetic and/or anti-obesity activity, but without the undesired effects of increased heart rate (β1 -effect) or muscle tremor (β2 -effect).
(§2) Selectivity of a compound is determined using the following procedures.
The β3 -effect of the compounds is determined by their ability to stimulate adipocyte lipolysis. Rat epididymal fat pads are excised and placed in 0.9% saline. Four grams of tissue is transferred to a flask with 20 ml of aerated Krebs-Henseleit bicarbonate (KHB) buffer containing 3% fatty acid-free bovine serum albumin to which 75 mg of crude bacterial collagenase (Worthington) has been added. The tissue is incubated for about 45 minutes at 37° C. with gentle shaking. The cells are then washed three times with two volumes of KHB buffer, filtered through two layers of gauze, and brought to a final volume of 80 ml with KHB buffer. One ml aliquots of the cell suspension is added to plastic test tubes containing the appropriate additions of vehicle or compound. The cells are gassed for 1 minute with 95%O2 -5%CO2, capped, and incubated at 37° C. with continuous shaking for a total of 30 minutes. The reaction is stopped by adding 0.1 ml of 30% perchloric acid and 0.1 ml of chloroform. After centrifugation, 0.5 ml of supernatant is transferred to another test tube and neutralized with 0.04 ml of 3M K2 CO3 -0.5M triethanolamine. The amount of glycerol generated from the hydrolysis of endogenous triglycerides is determined in a coupled-enzyme spectrophotometric assay. One-tenth milliliter of the neutralized extract is added to a test tube that contains 0.91 ml of assay mixture comprised of the following: 0.84M glycine, 0.42M hydrazine sulfate, 4.2 mM EDTA, 0.9 mM β-NAD, 9.9 mM MgCl2, 1 mM ATP, 17 U of glycerophosphate dehydrogenase, and 4.3 U of glycerokinase. The test tubes are incubated for 40 minutes at 37° C. with constant shaking. The amount of NADH generated, which is proportional to the amount of glycerol, is determined by the increase in absorbance at 340 nm. […]

The target in experiment [2] is T2, β1-adrenergic receptor (Rattus norvegicus, UniProt P18090).
T2 construct: membranes from rat heart; from tissue; host or cells: rat heart membranes
Put plainly: Heart membrane binding (β1-effect), [125I]iodocyanopindolol. The settings on record: rat heart membranes, 1 hour.
From the text: as §1, §2
Binding assays for β1 -effect are carried out by the use of membranes from rat heart, and β2 -effect by the use of membranes from rat lung by the method described in Neve, et al., J. Pharmacol. Exp. Ther., 1985, 235, 657-664 with the following exceptions:
1. the incubation volume is 0.5 ml,
2. the incubation time is 1 hour,
3. the radioligand is [^125 I]iodocyanopindolol,
4. (-)-isoproterenol (50 μM) is used to define specific binding, and
5. the filters are washed at 4° C.

Counter-ions that a name gives are not always drawn.

T1 sequence (P26255 whole entry): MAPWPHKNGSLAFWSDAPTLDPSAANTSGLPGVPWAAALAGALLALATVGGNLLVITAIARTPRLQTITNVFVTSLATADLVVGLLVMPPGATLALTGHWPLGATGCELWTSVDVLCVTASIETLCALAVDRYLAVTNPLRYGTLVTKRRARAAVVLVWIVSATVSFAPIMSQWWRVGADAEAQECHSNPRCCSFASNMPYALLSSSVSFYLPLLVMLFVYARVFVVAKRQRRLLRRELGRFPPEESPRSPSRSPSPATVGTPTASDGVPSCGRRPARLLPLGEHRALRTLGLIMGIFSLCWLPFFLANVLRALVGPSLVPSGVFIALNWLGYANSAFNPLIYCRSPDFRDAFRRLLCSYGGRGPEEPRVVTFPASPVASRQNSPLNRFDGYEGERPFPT
T2 sequence (P18090 whole entry): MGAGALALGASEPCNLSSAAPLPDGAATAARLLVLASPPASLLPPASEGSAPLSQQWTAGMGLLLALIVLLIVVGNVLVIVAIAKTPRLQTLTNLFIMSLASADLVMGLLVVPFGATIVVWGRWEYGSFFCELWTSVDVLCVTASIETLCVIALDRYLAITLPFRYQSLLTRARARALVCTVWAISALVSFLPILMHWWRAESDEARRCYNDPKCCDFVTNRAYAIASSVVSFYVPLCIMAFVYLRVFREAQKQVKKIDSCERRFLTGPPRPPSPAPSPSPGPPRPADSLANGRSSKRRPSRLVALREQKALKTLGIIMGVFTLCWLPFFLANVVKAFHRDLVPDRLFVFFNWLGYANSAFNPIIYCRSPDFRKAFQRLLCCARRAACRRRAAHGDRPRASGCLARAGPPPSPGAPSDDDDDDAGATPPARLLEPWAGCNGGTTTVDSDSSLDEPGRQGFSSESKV

Take `O=C(O)C1(C(=O)O)Oc2ccc3c(c2O1)C[C@@H](NC[C@H](O)c1cccc(Cl)c1)C3` [Example 3, [R-(R*,R* or R*,S*)]7-[[2-(3-Chlorophenyl)-2-hydroxyethyl]amino]-7,8-dihydro-6H-indeno[4,5-d]-1,3-dioxole-2,2-dicarboxylic acid disodium salt]: in experiment [1], the concentration for a half-maximal effect (EC50) was found to be 2590 nM. For the same compound, in experiment [2], the IC50 was greater than 1000 nM.

Take `O=C(O)C1(C(=O)O)Oc2ccc3c(c2O1)C[C@H](NC[C@H](O)c1cccc(Cl)c1)C3` [Example 4, [R-(R*,R* or R*,S*)]-7-[[2-(3-Chlorophenyl)-2-hydroxyethyl]amino]-7,8-dihydro-6H-indeno[4,5-d]-1,3-dioxole-2,2-dicarboxylic acid disodium salt]: the EC50 in experiment [1] worked out at 14.6 nM. The compound further displayed an IC50 in experiment [2] greater than 1000 nM.

Turning to `O=C(O)C1(C(=O)O)Oc2cc3c(cc2O1)CC(NC[C@H](O)c1cccc(Cl)c1)C3` [Example 5, (R)-7-[[2-(3-Chlorophenyl)-2-hydroxyethyl]amino]7,8-dihydro-6H-indeno[5,6-d]-1,3-dioxole-2,2-dicarboxylic acid disodium salt], the EC50 in experiment [1] turned out to be 100 nM. Further, the IC50 in experiment [2] was greater than 1000 nM.

Consider `O=C(O)C1(C(=O)O)Oc2cc3c(cc2O1)CC(NCC(O)c1cccc(Cl)c1)CC3` (stereo not drawn) [Example 7, (R*,R*), and (R*,S*)-6-[[2-(3-Chlorophenyl)-2-hydroxyethyl]amino]-5,6,7,8-tetrahydronaphtho[2,3-d]-1,3-dioxole-2,3-dicarboxylic acid disodium salt], for which the EC50 in experiment [1] is 4000 nM. In experiment [2], the IC50 was greater than 1000 nM.
